Tests used:
[1] = system: SMN2 mRNA; assay: In vitro cell-free splicing assay for inclusion of exon 7; type: biochemical; details: HeLa cell nuclear extract, 30° C., 3 hours
Experimental: The following example illustrates how tetracycline compound of the invention are active in an in vitro cell-free assay for the inclusion of exon 7 in […] mRNA. SMN1 and SMN2 pre-mRNA were prepared by in vitro transcription using T7 RNA polymerase of minigene templates that include exon 6, a truncated portion of intron 6, exon 7, intron 7 and a portion of exon 8 in the presence of ^32P-UTP. Labeled RNA was purified on a denaturing polyacrylamide gel followed by phenol extraction and ethanol precipitation of the RNA.
In vitro cell-free splicing of SMN1 and SMN2 transcripts was carried out in a 10 μl reaction volume at 30° C. for 3 hours. The reactions contained 10 fmol of labeled pre-mRNA, 30% (3 VI) HeLa cell nuclear extract (in 20 mM HEPES, pH 7.4, 20% (v/v) glycerol, 0.1M KC1, 0.2 mM EDTA), 1.3% (w/v) polyvinyl alcohol, 1.56 mM MgCl2, 32 mM HEPES, pH 7.4, 0.5 mM ATP, 20 mM creatine phosphate and either 2 μl of test compound (in 20 mM HEPES, pH 7.4, 0.1M KC1, 0.2 mM EDTA) or buffer alone. Following incubation, 200 μl of a solution containing 0.3M NaAc and 0.2% SDS was added to the reaction. Proteins were removed by extraction with an equal volume of phenol and RNA was precipitated with 2.5 volumes of ethanol. RNA was resuspended in formamide sample buffer and separated on a 9% urea-denaturing polyacrylamide gel. Quantitation of splicing was based on phosphorimage analysis (Fujix BAS2000 or Fujifilm FLA-5100). In this assay, percentage exon 7 inclusion averages 12% for the unmutated SMN1 mRNA and 4% for the SMN2 mRNA.
The in vitro activities for exon 7 splicing are expressed as the Emax (the maximum percentage exon 7 inclusion observed) and Cmax (the lowest compound concentration at which the maximum inclusion occurs in μM). For Emax, percentage inclusion values of less than 10% are indicated by “*”, values of 10-20% are indicated by “**”, and values greater than 20% are indicated by “***”. For Cmax data, concentrations of greater than 40 μM are indicated by “*”, concentrations between 40 and 10 μM are represented by “**” and concentrations of less than 10 μM are represented by “***”.

[2] = system: S. aureus (SA RN450); assay: Antibacterial MIC, gram positive; type: cell-based; details: CLSI methodology, 35° C., 18-24 hours; for MIC: Staphylococcus aureus
[3] = system: E. coli (EC D1-209); assay: Antibacterial MIC, gram negative; type: cell-based; details: CLSI methodology, 35° C., 18-24 hours; for MIC: Escherichia coli

Structure (SMILES)	Cmax (lowest compound concentration at which the maximum exon 7 inclusion occurs) [1]	Emax (maximum percentage exon 7 inclusion observed) [1]	MIC Gram Positive (SA RN450) [2]	MIC Gram Negative (EC D1-209) [3]	MIC [2]	MIC [3]
CN(C)C1C(O)=C(C(N)=O)C(=O)C2(O)C(O)=C3C(=O)c4c(O)ccc(C(=O)CNCc5ccco5)c4CC3CC12 (centres unmarked) [CC]	*** (concentrations of less than 10 μM)	** (values of 10-20%)	** (modest antibacterial activity (between about 4 and 8 μg/mL))	* (weak antibacterial activity (greater than about 8 μg/mL))	–	–
COCCNCC(=O)c1ccc(O)c2c1CC1CC3C(N(C)C)C(O)=C(C(N)=O)C(=O)C3(O)C(O)=C1C2=O (centres unmarked) [AG]	** (concentrations between 40 and 10 μM)	* (percentage inclusion values of less than 10%)	** (modest antibacterial activity (between about 4 and 8 μg/mL))	* (weak antibacterial activity (greater than about 8 μg/mL))	–	–
CN(C)CCCC(=O)Nc1cccc(-c2ccc(O)c3c2CC2CC4C(N(C)C)C(O)=C(C(N)=O)C(=O)C4(O)C(O)=C2C3=O)c1 (centres unmarked) [Compound Q]	*** (concentrations of less than 10 μM)	** (values of 10-20%)	*** (Good antibacterial activity (e.g., less than about 4 μg/mL))	* (weak antibacterial activity (greater than about 8 μg/mL))	–	–
CN(C)C1C(O)=C(C(N)=O)C(=O)C2(O)C(O)=C3C(=O)c4c(O)ccc(-c5cccc(C(=O)NCCO)c5)c4CC3CC12 (centres unmarked) [CK]	** (concentrations between 40 and 10 μM)	** (values of 10-20%)	*** (Good antibacterial activity (e.g., less than about 4 μg/mL))	* (weak antibacterial activity (greater than about 8 μg/mL))	–	–
CN(C)C1C(O)=C(C(N)=O)C(=O)C2(O)C(O)=C3C(=O)c4c(O)ccc(-c5cccc(CCCO)c5)c4CC3CC12 (centres unmarked) [CM]	*** (concentrations of less than 10 μM)	** (values of 10-20%)	*** (Good antibacterial activity (e.g., less than about 4 μg/mL))	* (weak antibacterial activity (greater than about 8 μg/mL))	–	–
CN(C)CCCCNC(=O)c1cccc(-c2ccc(O)c3c2CC2CC4C(N(C)C)C(O)=C(C(N)=O)C(=O)C4(O)C(O)=C2C3=O)c1 (centres unmarked) [CL]	** (concentrations between 40 and 10 μM)	*** (values greater than 20%)	** (modest antibacterial activity (between about 4 and 8 μg/mL))	* (weak antibacterial activity (greater than about 8 μg/mL))	–	–
CC(C)N(CCNC(=O)c1cccc(-c2ccc(O)c3c2CC2CC4C(N(C)C)C(O)=C(C(N)=O)C(=O)C4(O)C(O)=C2C3=O)c1)C(C)C (centres unmarked) [T]	** (concentrations between 40 and 10 μM)	** (values of 10-20%)	*** (Good antibacterial activity (e.g., less than about 4 μg/mL))	* (weak antibacterial activity (greater than about 8 μg/mL))	–	–
CN1CCN(Cc2ccc(-c3ccc(O)c4c3CC3CC5C(N(C)C)C(O)=C(C(N)=O)C(=O)C5(O)C(O)=C3C4=O)o2)CC1 (centres unmarked) [AY]	*** (concentrations of less than 10 μM)	*** (values greater than 20%)	*** (Good antibacterial activity (e.g., less than about 4 μg/mL))	* (weak antibacterial activity (greater than about 8 μg/mL))	–	–
CCOC(=O)CCNC(=O)c1cccc(-c2ccc(O)c3c2C[C@H]2C[C@H]4[C@H](N(C)C)C(O)=C(C(N)=O)C(=O)[C@@]4(O)C(O)=C2C3=O)c1 [Compound I, 3-[3-((6aS,10S,10aS,11aR)-8-Carbamoyl-10-dimethylamino-4,6,6a,9-tetrahydroxy-5,7-dioxo-5,6a,7,10,10a,11,11a,12-octahydro-naphthacen-1-yl)-benzoylamino]-propionic Acid Ethyl Ester]	* (concentrations of greater than 40 μM)	*** (values greater than 20%)	–	–	< 4 µg/mL	> 8 µg/mL
CN(C)C1C(O)=C(C(N)=O)C(=O)C2(O)C(O)=C3C(=O)c4c(O)ccc(-c5coc(CN6CCCCC6)c5)c4CC3CC12 (centres unmarked) [BF]	*** (concentrations of less than 10 μM)	** (values of 10-20%)	*** (Good antibacterial activity (e.g., less than about 4 μg/mL))	*** (Good antibacterial activity (e.g., less than about 4 μg/mL))	–	–
CN(C)CCCCNCc1ccc(O)c2c1C[C@H]1C[C@H]3[C@H](N(C)C)C(O)=C(C(N)=O)C(=O)[C@@]3(O)C(O)=C1C2=O [Compound CN, (4S,4aS,5aR,12aS)-4-Dimethylamino-7-[(4-dimethylamino-butylamino)-methyl]-3,10,12,12a-tetrahydroxy-1,11-dioxo-1,4,4a,5,5a,6,11,12a-octahydro-naphthacene-2-carboxylic Acid Amide]	*** (concentrations of less than 10 μM)	** (values of 10-20%)	–	–	> 8 µg/mL	> 8 µg/mL
CN(C)CCCNC(=O)c1cccc(-c2ccc(O)c3c2CC2CC4C(N(C)C)C(O)=C(C(N)=O)C(=O)C4(O)C(O)=C2C3=O)c1 (centres unmarked) [J]	*** (concentrations of less than 10 μM)	** (values of 10-20%)	*** (Good antibacterial activity (e.g., less than about 4 μg/mL))	* (weak antibacterial activity (greater than about 8 μg/mL))	–	–
CN(C)C1C(O)=C(C(N)=O)C(=O)C2(O)C(O)=C3C(=O)c4c(O)ccc(-c5cccc(C(=O)NCCN6CCCCC6)c5)c4CC3CC12 (centres unmarked) [U]	** (concentrations between 40 and 10 μM)	** (values of 10-20%)	*** (Good antibacterial activity (e.g., less than about 4 μg/mL))	** (modest antibacterial activity (between about 4 and 8 μg/mL))	–	–
CN(C)C1C(O)=C(C(N)=O)C(=O)C2(O)C(O)=C3C(=O)c4c(O)ccc(C(=O)Cc5cncn5C)c4CC3CC12 (centres unmarked) [CG]	* (concentrations of greater than 40 μM)	** (values of 10-20%)	*** (Good antibacterial activity (e.g., less than about 4 μg/mL))	* (weak antibacterial activity (greater than about 8 μg/mL))	–	–
CN(C)C1C(O)=C(C(N)=O)C(=O)C2(O)C(O)=C3C(=O)c4c(O)ccc(-c5cccc(C(=O)NCc6ccco6)c5)c4CC3CC12 (centres unmarked) [Y]	* (concentrations of greater than 40 μM)	** (values of 10-20%)	*** (Good antibacterial activity (e.g., less than about 4 μg/mL))	* (weak antibacterial activity (greater than about 8 μg/mL))	–	–
CN(C)Cc1ccc(-c2ccc(O)c3c2CC2CC4C(N(C)C)C(O)=C(C(N)=O)C(=O)C4(O)C(O)=C2C3=O)[nH]1 (centres unmarked) [BK]	–	–	*** (Good antibacterial activity (e.g., less than about 4 μg/mL))	* (weak antibacterial activity (greater than about 8 μg/mL))	–	–
CN(C)CCC(=O)c1ccc(O)c2c1CC1CC3C(N(C)C)C(O)=C(C(N)=O)C(=O)C3(O)C(O)=C1C2=O (centres unmarked) [AV]	–	–	*** (Good antibacterial activity (e.g., less than about 4 μg/mL))	* (weak antibacterial activity (greater than about 8 μg/mL))	–	–
C=CCNCC(=O)c1ccc(O)c2c1CC1CC3C(N(C)C)C(O)=C(C(N)=O)C(=O)C3(O)C(O)=C1C2=O (centres unmarked) [BV]	–	–	*** (Good antibacterial activity (e.g., less than about 4 μg/mL))	* (weak antibacterial activity (greater than about 8 μg/mL))	–	–
CN(C)C1C(O)=C(C(N)=O)C(=O)C2(O)C(O)=C3C(=O)c4c(O)ccc(-c5ccccc5)c4CC3CC12 (centres unmarked) [AQ]	–	–	*** (Good antibacterial activity (e.g., less than about 4 μg/mL))	** (modest antibacterial activity (between about 4 and 8 μg/mL))	–	–
